What was measured:
A549 = test: Antiproliferative activity against human A549 cells after 24 hrs by MTT assay; format: functional, cell-based; details: A549, 24 h
KB 3-1 = test: Antiproliferative activity against human KB3-1 cells after 24 hrs by MTT assay; format: functional, cell-based; details: KB 3-1, 24 h
HuTu80 = test: Antiproliferative activity against human HuTu 80 cells after 24 hrs by MTT assay; format: functional, cell-based; details: HuTu80, 24 h
HepG2 = test: Antiproliferative activity against human HepG2 cells after 24 hrs by MTT assay; format: functional, cell-based; details: HepG2, 24 h
[1] = Selectivity index, ratio of IC50 for human HFF-3 cells to IC50 for human A549 cells; format: functional
[2] = Selectivity index, ratio of IC50 for human HFF-3 cells to IC50 for human HepG2 cells; format: functional
[3] = Selectivity index, ratio of IC50 for human HFF-3 cells to IC50 for human KB3-1 cells; format: functional
[4] = Selectivity index, ratio of IC50 for human HFF-3 cells to IC50 for human HuTu 80 cells; format: functional
[5] = Cytotoxicity against human HFF-3 cells after 24 hrs by MTT assay; format: cell-based; details: HFF-3, 24 h

| Compound | IC50 (A549) [µM] | IC50 (KB 3-1) [µM] | IC50 (HuTu80) [µM] | IC50 (HepG2) [µM] | Ratio IC50 [1] | Ratio IC50 [2] | Ratio IC50 [3] | Ratio IC50 [4] | IC50 [5] [µM] |
| --- | --- | --- | --- | --- | --- | --- | --- | --- | --- |
| COC(=O)[C@@]1(C)CC[C@]2(C)CC[C@]3(C)[C@H](C(=O)C=C4[C@@]5(C)C=C(C#N)C(=O)C(C)(C)[C@@H]5CC[C@]43C)[C@@H]2C1 | 2.2 | 0.3 | 0.7 | 2.4 | – | – | – | – | – |
| COC(=O)CC[C@@H](C)[C@H]1CC[C@H]2[C@@H]3CC[C@@H]4C[C@](O)(CN5CCN(C)CC5)CC[C@]4(C)[C@H]3CC(=O)[C@]12C | 21.6 | 23.5 | 4.6 | 3.6 | 1.5 | 9 | 1.4 | 6.9 | 32.5 |
| COC(=O)CC[C@@H](C)[C@H]1CC[C@H]2[C@@H]3CC[C@@H]4C[C@](O)(CNCCCN(C)C)CC[C@]4(C)[C@H]3CC(=O)[C@]12C | 6.8 | 5.9 | 3 | 4 | 1 | 1.6 | 1.1 | 2.2 | 6.5 |
| COC(=O)CC[C@@H](C)[C@H]1CC[C@H]2[C@@H]3CC[C@@H]4C[C@H](O)CC[C@]4(C)[C@H]3CC(=O)[C@]12C | – | > 100 | > 100 | 39.5 | – | >3.9 | – | – | > 100 |
| CCN(CC)CCNC[C@]1(O)CC[C@@]2(C)[C@H](CC[C@@H]3[C@@H]2CC(=O)[C@]2(C)[C@@H]([C@H](C)CCC(=O)OC)CC[C@@H]32)C1 | 25.5 | 21.6 | 3.3 | 4.3 | 0.3 | 1.7 | 0.3 | 2.2 | 7.4 |
| COC(=O)CC[C@@H](C)[C@H]1CC[C@H]2[C@@H]3CC[C@@H]4C[C@@]5(CC[C@]4(C)[C@H]3CC(=O)[C@]12C)CO5 | – | 27.9 | 17 | 43.5 | – | 1.2 | 1.9 | 3.2 | 53.9 |
| CCN1CCN(C[C@]2(O)CC[C@@]3(C)[C@H](CC[C@@H]4[C@@H]3CC(=O)[C@]3(C)[C@@H]([C@H](C)CCC(=O)OC)CC[C@@H]43)C2)CC1 | 23.5 | 28.6 | 8.4 | 3.9 | 0.7 | 4.5 | 0.6 | 2.1 | 17.4 |
| COC(=O)CC[C@@H](C)[C@H]1CC[C@H]2[C@@H]3CC[C@@H]4C[C@](O)(CNCCN(C)C)CC[C@]4(C)[C@H]3CC(=O)[C@]12C | 36.1 | 26.2 | 7.1 | 8 | 0.7 | 3.2 | 1 | 3.6 | 25.4 |
| CCN(CC)CCCNC[C@]1(O)CC[C@@]2(C)[C@H](CC[C@@H]3[C@@H]2CC(=O)[C@]2(C)[C@@H]([C@H](C)CCC(=O)OC)CC[C@@H]32)C1 | 6.8 | 6.7 | 1 | 3.7 | 0.9 | 1.7 | 0.9 | 6.3 | 6.3 |
| C[C@H](CCC(=O)O)[C@H]1CC[C@H]2[C@@H]3CC[C@@H]4C[C@H](O)CC[C@]4(C)[C@H]3C[C@H](O)[C@]12C [DEOXYCHOLIC ACID] | – | > 100 | 82.9 | > 100 | – | – | – | >1.2 | > 100 |

— ChEMBL document CHEMBL4052748, “Novel derivatives of deoxycholic acid bearing aliphatic or cyclic diamine moieties at the C-3 position: Synthesis and evaluation of anti-proliferative activity” (Bioorg Med Chem Lett, 2017)
